In PMC10885115, “Susceptibility of Tetranychus urticae to the Alkaloidal Extract of Zanthoxylum schreberi Bark: Phenotypic and Biochemical Insights for Biotechnological Exploitation” (BioTech, 2024):
“And” between values parts separate entries of the source, which are not always exact repeats. Equal entries are not always repeated. Where two headings read alike, the source gives them in different places.

Tests used:
[1] = system: T. urticae adult females (exposed mite population); experiment: Mortality test for extract combined with commercial acaricides (exposed mites); assay type: in vivo, Tetranychus urticae
Description: (§1) Using the same methodology described in the previous section, the following treatments were evaluated in this test: absolute control (application of distilled water), relative control (10% ethanol), positive control A (clorfenapyr at 0.06%), positive control B (cyflumetofen at 0.075%), positive control C (abamectin at 0.05%), treatment 1 (0.5% extract), treatment 2 (0.5% extract + 0.06% clorfenapyr), treatment 3 (0.5% extract + 0.075% cyflumetofen), and treatment 4 (0.5% extract + 0.05% abamectin). Mortality assessments were conducted at 24, 48, and 72 h post-treatment application and adjusted using the Schneider–Orelli formula (Equation (1)). Fecundity was also measured by isolating five surviving females per treatment (after 72 h of exposure to treatments) in petri dishes. The number of eggs oviposited by each female was counted every 24 h over 5 days. Simultaneously with the susceptibility test, the repellent effect of the extract was measured by counting the number of surviving females placed outside the leaves after 24, 48, and 72 h. All laboratory tests were conducted under controlled conditions at 25 ± 2 °C, 60 ± 5% relative humidity, and a 12:12 (light/dark) photoperiod.

[2] = system: T. urticae adult females (exposed mite population); experiment: Fecundity (oviposition) test for extract combined with commercial acaricides; assay type: in vivo, Tetranychus urticae; details: 0.06% chlorfenapyr, 0.075% cyflumetofen, 0.05% abamectin, 0.5% extract and combinations M2 to M4; surviving females after 72 h exposure
Description: as §1

[3] = system: T. cinnabarinus Boisdu-Val; parameters: method as in PMID 24861930; details: resistant strain; cited from earlier work
T. urticae = details: cited from earlier work
[4] = target: glutathione S-transferase (GST); experiment: GST inhibition in T. urticae protein homogenate; assay type: biochemical, Tetranychus urticae; details: pure compounds, read-out: GST IC50 (95% interval confidence)
Description: (§2) The protein homogenate from T. urticae adult females (n = 50) was prepared by homogenizing them in 500 μL of 0.1 M phosphate buffer (pH 7.2) in an ice bath. After homogenization, the mixture was centrifuged at 12,000× g for 20 min at 4 °C. Both untreated mites and those treated with 0.5% Z. schreberi bark extract were processed similarly. The protein content within the homogenate was quantified using the linearized Bradford micromethod, employing bovine serum albumin as an external standard. A calibration curve was established based on the ratio of absorbance measurements at 590 nm and 450 nm, ensuring linearity with varying protein concentrations. The resulting supernatant was subsequently stored at −20 °C for further enzyme analysis.
GST activity was assessed using 1-chloro-2, 4-dinitrobenzene (CDNB) as the substrate, following a previous procedure. Briefly, the reaction was initiated by mixing CDNB (50 mM in ethanol, 50 µL) and reduced glutathione (50 mM in 0.1 M phosphate-buffered saline (PBS), pH 6.5, 150 µL) in a 5 mL vial with phosphate buffer (0.1 M, pH 6.5 containing 1 mM EDTA, 2.78 mL). Subsequently, 20 µL of protein homogenate was added, and the solution was thoroughly mixed. An aliquot (200 µL) from the resulting mixture was dispensed into a microtiter plate well for measurement, with the procedure performed in triplicate for both biological and technical replicates. The absorbance of each reaction mixture at 340 nm was then recorded using kinetics on a Varioskan LUX 96-well plate reader (Thermo Fisher Scientific, Waltham, MA, USA) after a 10 min duration. The specific GST activity was calculated using the kinetic slope to convert μmoles of product per minute (9.6 mM^−1cm^−1 and 0.3 cm), thereby determining the specific enzyme activity expressed as μmol of substrate/min/mg protein.
(§3) Further investigation involved determining the inhibition of the test enzymes (i.e., AChE, GST, esterase, and PMO). […] The final absorbance measurements of each treatment (At) and control (Ac) were related to the calculated enzyme inhibition percentage using Equation (3). (3) Enzyme Inhibition (%)=[…]
(§4) This determination was performed for each treatment concentration (extract and purified compound) to establish dose–response curves. The IC50 (half-maximal inhibitory concentration in μg/mL for extract and μM for pure compounds) was calculated via nonlinear regression analysis using GraphPad 7.0 (GraphPad Software LLC, Boston, MA, USA).

P450 monooxygenase (PMO) = experiment: PMO inhibition in T. urticae protein homogenate; assay type: biochemical, Tetranychus urticae; details: pure compounds, read-out: PMO IC50 (95% interval confidence)
Description: as §2
The PMO activity was measured by reducing hydrogen peroxide to oxidize 3,3′,5,5′-tetramethylbenzidine (TMBZ), following a previous procedure. Briefly, the protein homogenate (20 µL) was mixed in a microtiter plate well with 6 mM TMBZ (200 µL) working solution (TMBZ (0.01 g) in methanol (5 mL) and 0.25 M sodium acetate (pH 5.0, 15 mL)) and 3% H2O2 (25 µL) for 30 min at 25 °C. After this incubation period, the absorbance was read at 630 nm on a Varioskan LUX 96-well plate reader (Thermo Fisher Scientific, Waltham, MA, USA). The standard curve of heme peroxidase activity was prepared using Cytochrome C from equine heart (Merck, Milwakee, WI, USA). Total Cytochrome P450 monoxygenase was expressed as µmoles of Cytochrome P450 equivalent units (CPEU)/min/mg protein.
as §3, §4

general esterases = experiment: General esterase inhibition in T. urticae protein homogenate; assay type: biochemical, Tetranychus urticae; details: pure compounds, read-out: Est IC50 (95% interval confidence)
Description: as §2
Enzyme activity of general esterases was assessed using p-nitrophenylacetate as substrate, following a previous procedure. In brief, the protein homogenate (10 µL) was mixed in a microtiter plate well with 1 mM p-nitrophenyl acetate (200 µL) in 50 mM phosphate buffer pH 7.4. The absorbance was measured at 405 nm after a 10 min incubation period using a Varioskan LUX 96-well plate reader (Thermo Fisher Scientific, Waltham, MA, USA). The specific esterase activity was calculated using the kinetic slope to convert μmoles of product per minute (6.53 mM^−1cm^−1 and 0.3 cm), thereby determining the specific enzyme activity expressed as μmol of substrate/min/mg protein.
as §3, §4

[5] = target: acetylcholinesterase (AChE) and butyrylcholinesterase (BuChE) from various sources; parameters: method as in PMID 37073143; details: most potent of 34 isoquinoline alkaloids; cited from earlier work
[6] = target: T1, acetylcholinesterase (AChE) (Tetranychus urticae, UniProt D8V7J9); assay type: biochemical; details: pure compounds; T. urticae protein homogenate; read-out: AChE IC50 (95% interval confidence)
T1 sequence (D8V7J9 74-665): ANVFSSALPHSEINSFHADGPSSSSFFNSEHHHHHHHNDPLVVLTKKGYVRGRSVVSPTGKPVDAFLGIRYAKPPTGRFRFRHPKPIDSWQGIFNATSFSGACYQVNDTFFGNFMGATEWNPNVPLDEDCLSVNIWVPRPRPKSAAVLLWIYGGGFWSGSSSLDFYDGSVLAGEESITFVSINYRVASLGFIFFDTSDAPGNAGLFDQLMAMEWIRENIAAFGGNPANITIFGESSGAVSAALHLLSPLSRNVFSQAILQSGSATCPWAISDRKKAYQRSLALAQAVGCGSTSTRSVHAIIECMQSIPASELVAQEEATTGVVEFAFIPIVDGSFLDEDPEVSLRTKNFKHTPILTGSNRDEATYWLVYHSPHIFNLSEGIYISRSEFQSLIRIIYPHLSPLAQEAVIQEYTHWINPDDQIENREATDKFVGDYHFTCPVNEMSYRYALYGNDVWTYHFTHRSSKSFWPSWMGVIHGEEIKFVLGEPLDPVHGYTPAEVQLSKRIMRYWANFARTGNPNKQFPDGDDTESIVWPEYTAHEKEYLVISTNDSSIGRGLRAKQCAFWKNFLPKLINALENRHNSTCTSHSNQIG
Description: The protein homogenate from T. urticae adult females (n = 50) was prepared by homogenizing them in 500 μL of 0.1 M phosphate buffer (pH 7.2) in an ice bath. After homogenization, the mixture was centrifuged at 12,000× g for 20 min at 4 °C. […] The protein content within the homogenate was quantified using the linearized Bradford micromethod [40], employing bovine serum albumin as an external standard. A calibration curve was established based on the ratio of absorbance measurements at 590 nm and 450 nm, ensuring linearity with varying protein concentrations [40]. The resulting supernatant was subsequently stored at −20 °C for further enzyme analysis.
The Ellman method was employed to assess AChE activity in both untreated and Z. schreberi-treated mites, following a previous procedure [41]. […]
Further investigation involved determining the inhibition of the test enzymes (i.e., AChE, GST, esterase, and PMO). […] The final absorbance measurements of each treatment (At) and control (Ac) were related to the calculated enzyme inhibition percentage using Equation (3). […]

[7] = system: T. urticae females from the unexposed rearing system; experiment: Preliminary mortality test with unexposed mites; assay type: in vivo, Tetranychus urticae; details: 0.4% chlorfenapyr (positive control), airbrush application
Description: A preliminary trial was conducted to determine the effect of Z. schreberi alkaloidal extract on mites for subsequent experiments, following the methodology outlined by Numa et al. (2015), with certain modifications. Briefly, the bioassay comprised a bean leaf with its underside facing upward, which was placed in a petri dish and its edges lined with cotton moistened using distilled water. Ten T. urticae females from the unexposed rearing system were situated on each leaf. The bioassay on females was driven by their pivotal role in population dynamics, as they are the primary contributors to new individuals. The net reproductive rate per generation (Ro) or population replacement rate is directly dependent on female reproductive capabilities. Consequently, any lethal or sublethal effects observed in females and oviposition will directly influence population growth. This approach led us to assess the potential of the extracts as a promising strategy for pest control, considering their impact on the crucial factor of population expansion. Subsequently, each dish was sealed with plastic wrap post-application of treatments. The evaluated treatments comprised an absolute control (mites without any application), a positive control (chlorfenapyr at 0.4%), and the alkaloidal extract of Z. schreberi at 2%. […] Deceased mites were counted 24 h post-application.

[8] = system: T. urticae adult females (exposed mite population); experiment: Mortality test for Z. schreberi bark extract using exposed mites (leaf-immersion); assay type: in vivo, Tetranychus urticae; details: 0.06% chlorfenapyr (PC, commercially recommended dose)
From the text: The experimental setup involved a transparent cylindrical container with a 3.5 cm diameter filter paper disk placed at the bottom, moistened with distilled water. Bean leaf disks, previously immersed in the respective extract solution and air-dried, were then positioned on the paper disk. The container lid underwent modification, featuring a centrally located circular opening. A metal mesh, perforated with small holes, was affixed using silicone around this opening to facilitate ventilation and prevent mites from escaping. Concentrations ranging from 2, 1, 0.5, and 0.25, to 0.125% of the Z. schreberi bark alkaloidal extract were evaluated diluted in 10% ethanol. These concentrations were selected since they comprise typical doses for botanical pesticides, and, consequently, they were standardized in previous studies in our laboratory to assess botanical extracts. Additionally, three control treatments were employed: an absolute control (application of distilled water), a relative control (10% ethanol), and a positive control (clorfenapyr at 0.06%). Mortality assessments were conducted at 24, 48, and 72 h post-treatment application. The obtained mortality data were adjusted using Schneider–Orelli’s formula (Equation (1)). […]

[9] = system: T. urticae adult females (exposed mite population); experiment: Repellency test for Z. schreberi bark extract using exposed mites; assay type: in vivo, Tetranychus urticae; details: 0.06% chlorfenapyr

| Compound | Average fecundity per female over 5 days compared to controls AC and RC [2] | IC50 [4] | IC50 (P450 monooxygenase (PMO)) | IC50 (general esterases) | further results |
| --- | --- | --- | --- | --- | --- |
| COCCOC(=O)C(C#N)(C(=O)c1ccccc1C(F)(F)F)c1ccc(C(C)(C)C)cc1 (stereo not shown) [cyflumetofen] | statistically significant reduction |  |  |  | Corrected average mortality after 72 h ([1]; 0.075% cyflumetofen alone (PCB)): 32.5%; LD50 [3]: 0.0016%; LD50 (T. urticae; susceptible strain of T. urticae): 0.00011% |
| COc1ccc2c(c[n+](C)c3c4cc5c(cc4ccc23)OCO5)c1OC [Compound 4, chelerythrine] |  | 11.7 µM | 89.6 µM | > 300 µM |  |
| abamectin | statistically significant reduction |  |  |  |  |
| COc1ccc2cc3[n+](cc2c1OC)CCc1cc2c(cc1-3)OCO2 [Compound 6, berberine] |  | 1.24 µM | 386 µM | > 300 µM | IC50 [5]: 0.72 µg/mL |
| fagaridine [Compound 5] |  | 112 µM | 20.9 µM | > 300 µM | IC50 [6]: 14.6 µM |
| COc1c(O)ccc2cnc3c4cc5c(cc4ccc3c12)OCO5 [Compound 9, zanthoxyline] |  | 21.5 µM | 8.37 µM | 289 µM |  |
| COc1ccc2cc3[n+](cc2c1O)CCc1cc2c(cc1-3)OCO2 [Compound 3, berberrubine] |  | 5.61 µM | 62.7 µM | > 300 µM |  |
| CCOCn1c(-c2ccc(Cl)cc2)c(C#N)c(Br)c1C(F)(F)F [chlorfenapyr] | statistically significant reduction |  |  |  | Corrected average mortality after 72 h ([1]; 0.06% chlorfenapyr alone (PCA)): 20.9%; Corrected mortality after 24 h [7]: 93.3%; Corrected average mortality after 72 h [8]: 24.6%; LD50 (T. urticae; two resistant strains of T. urticae, listed as clorfenapyr): 0.08% and 0.29%; Repellency after 72 h [9]: lowest repellency |
